In patent publication US20260021167A1, “COMPOSITIONS AND METHODS FOR TREATING OR PREVENTING NEURODEGENERATIVE DISEASES” (Delaware State University, priority 2022, published 2026):

Experiments:
TH+ dopaminergic neurons = assay: Immunohistochemistry of TH staining in striatum and SNc of PFF-injected mice; format: in vivo, mouse
Experimental: (§1) A mouse model of Parkinson's disease is C57BL/6 male or female mice (50% each) injected with 5 μg of mouse PFF at 12 months old, followed by a treatment below for 6-7 weeks: • 1) without PFF injection, followed by vehicle (control, n=7); • 2) PFF injection, followed by vehicle (PFF only: control, n=8); • 3) PFF injection, followed by daily 10 mg/kg Momordin gavage (n=7-8); • 4) PFF injection, followed by daily 50 mg/kg Momordin gavage (n=7-8).
Immunohistochemistry. The serial coronal sections of the right hemisphere were collected throughout the striatum and substantia nigra. Each section with a thickness of 14 μm was mounted as a set of 5 onto positively charged slides (Midwest Sci, Valley Park, MO). The slides were kept at −80° C. until immunohistochemistry was performed. The sections were thawed at room temperature for 30 min, followed by a rehydration step in 0.1M PB for 10 min. The permeabilization step was performed using pre-chilled 100% acetone for 10 min. The excess acetone was dried, and permeabilization solution (40 µL Triton-X in 2% BSA) was added to the slides and kept aside for an additional 10 min. A blocking reagent containing 5% BSA in PB-T was given in the blocking step after drying the slides of excess permeabilization solution. The primary antibody was exposed under the coverslips to prevent the dehydration of the primary antibody. After the primary antibody (EMD Millipore-AB152) treatment at 4° C. overnight, the tissues were washed in PBS-T for 5 min three times. Then, slides were treated with a secondary antibody of Alexa-647-conjugated goat anti-rabbit (1:1000; Molecular Probes, Thermo Fisher Scientific) and incubated at room temperature for 2 h. The secondary antibody was washed in PBS-T for 3×5 min. Coverslips were mounted on slides using ProLong Diamond antifade mounting medium (Thermofisher, MA, USA). All images were captured using EVOS FL Cell Imaging Systems (Invitrogen), and every fifth section was analyzed for measuring the intensity of TH staining in the striatum and counting TH+ neurons in the SNc in a blinded manner. The same procedure was used for assessing the levels of phosphorylated Ser-129-α-synuclein (1:500, Cell signaling, cat #23706S) and protein aggregation using thioflavin-T (20 μM, Acros). Pictures for specific regions such as the striatum and ventral midbrain (vMB) were taken using confocal microscopy and stitched together to obtain a single image for representation purposes. The intensities were measured using ImageJ by a blinded rater.
Immunohistochemistry. The serial coronal sections of the right hemisphere were collected throughout the striatum and substantia nigra. Each section with a thickness of 14 μm was mounted as a set of 5 onto positively charged slides (Midwest Sci, Valley Park, MO). […]

SUMO-1 = assay: Western blot of SUMO-1 in brain tissue extracts of PFF-injected mice; format: in vivo, mouse; details: vs PFF only
Experimental: as §1
Immunoblot Analyses. A total of three protein extractions were performed. In the first extraction, a gentle RIPA buffer containing the low concentration of detergent (25 mM Tris-HCL, 150 mM NaCl, 1% NP-40, 1% sodium deoxycholate and 0.1% SDS) was added with phosphatase inhibitors (100 μL for 10 mL) and 5 mM EDTA. The mixture was sonicated and centrifuged at 14,000 rpm for 10 min. The supernatant was collected for measuring the levels of phosphorylated α-syn, SENP-1 or SUMO-1 conjugated proteins for different groups. […] The primary antibodies pertaining to each protein analyzed were diluted at 1:1000 (p-Ser-129-α-synuclein, Cell signaling; SENP-1, SAB4501345, EMD) and incubated at 4° C. overnight. […] ImageJ was used to analyze specific bands on each blot and measured against the loading control (β-actin) for normalizing each band intensity.

## CC1(C)CC[C@]2(C(=O)O)CC[C@]3(C)C(=CC[C@@H]4[C@@]5(C)CC[C@H](O[C@@H]6O[C@H](C(=O)O)[C@@H](O)[C@H](O[C@@H]7OC[C@@H](O)[C@H](O)[C@H]7O)[C@H]6O)C(C)(C)[C@@H]5CC[C@]43C)[C@@H]2C1 [Momordin lc]
TH+ dopaminergic neurons; 50 mg/kg oral for 6-7 weeks, PFF-injected mice
  recovery from damages in the striatum and Substantia Nigra compacta (SNc): effective
TH+ dopaminergic neurons; PFF injection
  dopaminergic neuronal death / neuronal cell loss in mouse brains: reverse dopaminergic neuronal death
TH+ dopaminergic neurons; both doses (10 and 50 mg/kg) oral for 6-7 weeks, PFF-injected mice, vs PFF only
  number of TH+ dopaminergic neurons in the SNc: significantly recovered
TH+ dopaminergic neurons; oral treatment for 6-7 weeks, PFF-injected mice, vs PFF only
  intensity of TH+ label in the striatum: improves the intensity of TH+ label
SUMO-1; midbrain
  level of SUMO-1 in the MB (Western blot, tissue extracts): enhanced level of SUMO-1
SUMO-1; striatum
  level of SUMO-1 in the STR (Western blot, tissue extracts): enhanced level of SUMO-1
